The subject of one assay is M9 clinical. In words: MIC of antibiotics in combination with 10 μg/mL of ceftolozane-like BATSIs. The format is cell-based. The settings on record: CAZ alone.
Another assay relates to 18SH. The description is as above. The format is cell-based. As to conditions: for MIC values of antibiotics in combination with 10 μg/mL of compounds: CAZ + 10 μg/mL compound.
The next assay has as its system blaCMY-2. The description is as above. It counts as cell-based. The settings on record: for MIC values of antibiotics in combination with 10 μg/mL of compounds: CAZ + 10 μg/mL compound.
The next assay has as its system blaADC-7. The assay is described as above. It counts as cell-based. The settings on record: for MIC values of antibiotics in combination with 10 μg/mL of compounds: CAZ + 10 μg/mL compound.
A further assay relates to blaPDC-3E221K. Described as above. It counts as cell-based. As to conditions: for MIC values of antibiotics in combination with 10 μg/mL of compounds: CAZ + 10 μg/mL compound.
For assay [1], the system named is Klebsiella pneumonia/FDA-CDC AR-BANK#0098. Briefly: MIC of MB076 alone or in combination with cefepime or meropenem. The format is cell-based. The settings on record: Klebsiella pneumoniae; single agent; read-out: MIC. As to the method:
(§1) MICs were determined by the Agar microdilution method, following CLSI guidelines. Compounds were tested at fixed concentration of 4 ug/ml in combination with cefepime.

In assay [2] the test system is Klebsiella pneumonia/BAA-1705. Described as above. As to conditions: Klebsiella pneumoniae, BAA1705; single agent; read-out: MIC. The format is cell-based. The procedure: as §1
In assay [3] the test system is Klebsiella pneumonia/FDA-CDC AR-BANK#0097. The assay is described as above. The settings on record: Klebsiella pneumoniae; single agent; read-out: MIC. The format is cell-based. As to the method:
as §1

The test system of a further assay is K. pneumoniae Kp1. In words: Survival of mice infected IV with K. pneumoniae Kp1. The format is in vivo. As to conditions: C57BL/6 mice infected IV with KP1; treated IP at infection, 18 h and 24 h; cefepime 100 mg/kg/dose; cefepime+MB076 at 1:4 ratio. As to the method: FIG. 1 illustrates the survival curve of mice infected IV with K. pneumoniae Kp1 and treated with cefepime alone or in combination with MB076. Five male C57BL/6 mice per treatment were infected IV via the tail-vein with 2.1×10^8 CFU/mouse and treated with placebo control (phosphate-buffered saline), cefepime (100 mg/kg/dose), or cefepime and MB076.
To determine […] activity of MB076 we used cefepime with or without MB076 in mice infected IV with the pan drug resistant strain KP1 and treated IP at the time of infection with placebo control, cefepime, or cefepime+MB076 (at 1:4 ratio). Doses were repeated the following morning and afternoon (18 h and 24 h after infection, respectively). All mice treated with placebo or cefepime alone died, whereas all mice treated with either ratio of MB076 plus cefepime survived.

The subject of another assay is K. pneum blaKPC-2. In words: MIC of antibiotics in combination with 10 μg/mL of ceftolozane-like BATSIs. The format is cell-based. The settings on record: for MIC values of antibiotics in combination with 10 μg/mL of compounds: FEP + 10 μg/mL compound.
The test system of the next assay is K. pneum KPC-Kpn. The assay is described as above. The format is cell-based. As to conditions: for MIC values of antibiotics in combination with 10 μg/mL of compounds: FEP + 10 μg/mL compound.
The subject of a further assay is blaCTXM-9. The description is as above. The format is cell-based. As to conditions: for MIC values of antibiotics in combination with 10 μg/mL of compounds: FEP + 10 μg/mL compound.
The test system of the next assay is K. pneumoniae ST258 C3. Briefly: MIC with cefepime, agar microdilution, CLSI. It counts as cell-based. The settings on record: cefepime alone; KPC-3. The procedure:
(§2) Minimum inhibitory concentration (MIC) of MB076 and derivatives (PCF_038-043) in combination with cefepime.
as §1

For the next assay, the system named is K. pneumoniae ST17. Briefly: MIC with cefepime, agar microdilution, CLSI. It counts as cell-based. As to conditions: cefepime alone; KPC-2, TEM, SHV, CTX-M-Group 1. As to the method:
as §2, §1

For another assay, the system named is K. pneumoniae 253. Briefly: MIC with cefepime, agar microdilution, CLSI. The format is cell-based. As to conditions: cefepime alone; TEM-12, SHV-5, CTX-M. The procedure:
as §2, §1

The test system of the next assay is K. pneumoniae ST258 B5. In words: MIC with cefepime, agar microdilution, CLSI. It counts as cell-based. The settings on record: cefepime alone; KPC-2. The procedure:
as §2, §1

For assay [4], the system named is E. coli DH10B pBC-SK PDC-3. Briefly: MIC with cefepime, agar microdilution, CLSI. The format is cell-based. The settings on record: cefepime alone. As to the method: as §2, §1
The next assay deals with E. coli pLTCF1. In words: MIC with cefepime, agar microdilution, CLSI. It counts as cell-based. As to conditions: cefepime alone; CTX-M group 9. As to the method:
as §2, §1

The test system of the next assay is E. coli DH10B pBC-SK P99. Briefly: MIC with cefepime, agar microdilution, CLSI. It counts as cell-based. The settings on record: cefepime alone. The procedure: as §2, §1
Assay [5] has as its system E. coli DH10B pBC-SK KPC-2. In words: MIC with cefepime, agar microdilution, CLSI. The format is cell-based. The settings on record: cefepime alone. As to the method: as §2, §1
The test system of another assay is K. pneumoniae 427. In words: MIC with cefepime, agar microdilution, CLSI. The format is cell-based. The settings on record: cefepime alone; TEM-1, SHV-1, CTX-M-3. As to the method:
as §2, §1

For assay [6], the system named is K. pneumoniae original KPC-2. Briefly: MIC with cefepime, agar microdilution, CLSI. The format is cell-based. As to conditions: cefepime alone. As to the method:
as §2, §1

The subject of a further assay is E. coli pLTCF2. In words: MIC with cefepime, agar microdilution, CLSI. The format is cell-based. The settings on record: cefepime alone. As to the method: as §2, §1
A further assay has as its system E. coli 29838. In words: MIC with cefepime, agar microdilution, CLSI. The format is cell-based. As to conditions: cefepime alone; CTX-M-14, TEM-1. As to the method: as §2, §1
A further assay deals with A. baumannii 0057. In words: MIC with cefepime, agar microdilution, CLSI. As to conditions: cefepime alone; ADC-7. The format is cell-based. As to the method: as §2, §1
A further assay has as its system K. pneumoniae 266. In words: MIC with cefepime, agar microdilution, CLSI. It counts as cell-based. As to conditions: cefepime alone; SHV-5. As to the method:
as §2, §1

Assay [7] relates to E. coli DH10B pBC-SK SHV-2. In words: MIC with cefepime, agar microdilution, CLSI. It counts as cell-based. As to conditions: cefepime alone. As to the method: as §2, §1
A further assay has as its system K. pneumoniae 255. Briefly: MIC with cefepime, agar microdilution, CLSI. It counts as cell-based. As to conditions: cefepime alone; TEM-1, SHV-2. The procedure: as §2, §1
The subject of assay [8] is E. coli DH10B pBC-SK control. Briefly: MIC with cefepime, agar microdilution, CLSI. It counts as cell-based. As to conditions: cefepime alone; B-lactamases none. The procedure: as §2, §1
In another assay the test system is K. pneumoniae 34700. Briefly: MIC with cefepime, agar microdilution, CLSI. It counts as cell-based. As to conditions: cefepime alone; CTX-M-15, SHV, TEM. As to the method:
as §2, §1

For the next assay, the system named is E. coli ATCC BAA202. Briefly: MIC with cefepime, agar microdilution, CLSI. The format is cell-based. As to conditions: cefepime alone; SHV-1. The procedure:
as §2, §1

Another assay concerns NDM-1 pHSG298. Briefly: MIC of antibiotics in combination with 10 μg/mL of ceftolozane-like BATSIs. The format is cell-based. As to conditions: IMI alone.
The test system of another assay is HUMC1 Abspp. The assay is described as above. The settings on record: SULB alone. It counts as cell-based.

As for `CC(C)(O/N=C(\C(=O)N[C@@H]1C(=O)N2C(C(=O)[O-])=C(C[n+]3ccccc3)CS[C@H]12)c1csc(N)n1)C(=O)O` [CAZ, ceftazidime, reference compound], the MIC of antibiotic result in the assay on M9 clinical is given as “CAZ >32 mg/mL”; in the assay with 18SH (CAZ alone), “CAZ 64 mg/mL”; with blaCMY-2 (CAZ alone) it was “CAZ 128 mg/mL”; in the assay on blaADC-7 (CAZ alone) it was “CAZ 16 mg/mL”; in the assay on blaPDC-3E221K (CAZ alone), “CAZ 32 mg/mL”.
Regarding `CO/N=C(\C(=O)N[C@@H]1C(=O)N2C(C(=O)[O-])=C(C[N+]3(C)CCCC3)CS[C@H]12)c1csc(N)n1` [Cefepime, cefepime, reference compound], the MIC in assay [1] is 32 µg/mL; in assay [2], over 32 µg/mL; in [3], over 32 µg/mL. The “Survival of infected mice” value in the assay with K. pneumoniae Kp1 is “died”. Moreover, the MIC of antibiotic in the assay with K. pneum blaKPC-2 (FEP alone) is given as 16/32; with K. pneum KPC-Kpn (FEP alone), “FEP 32 mg/mL”; with blaCTXM-9 (FEP alone) it was “FEP 8 mg/mL”. The MIC of cefepime with K. pneumoniae ST258 C3 is 8 µg/mL; in the assay with K. pneumoniae ST17, 64 µg/mL; with K. pneumoniae 253, 32 µg/mL; with K. pneumoniae ST258 B5, 32 µg/mL; in assay [4], under 0.25 µg/mL; in the assay with E. coli pLTCF1 it was 8 µg/mL. In addition, the MIC of cefepime in the assay on E. coli DH10B pBC-SK P99 is under 0.25 µg/mL; in assay [5] it was 8 µg/mL; with K. pneumoniae 427, 8 µg/mL; in assay [6], 8 µg/mL; in the assay with E. coli pLTCF2, 1 µg/mL; with E. coli 29838, 4 µg/mL. Moreover, the MIC of cefepime was 64 µg/mL in the assay on A. baumannii 0057; 2 µg/mL in the assay on K. pneumoniae 266; 4 µg/mL in assay [7]; 4 µg/mL with K. pneumoniae 255; under 0.25 µg/mL in assay [8]; 32 µg/mL in the assay with K. pneumoniae 34700. Also, the MIC of cefepime with E. coli ATCC BAA202 was determined as 1 µg/mL.
In the case of `C[C@@H](O)[C@H]1C(=O)N2C(C(=O)O)=C(SCCN=CN)C[C@H]12` [IMI], the MIC of antibiotic entry with NDM-1 pHSG298 is recorded as “IMI 8 mg/mL”.
Consider `CC(C)(O/N=C(\C(=O)NCB(O)O)c1nsc(N)n1)C(=O)O` [PCF_013], for which the “MIC values of antibiotics in combination with 10 μg/mL of compounds” value (“MIC values of antibiotics in combination” below) was 64 µg/mL in the assay on 18SH; 64 µg/mL in the assay with blaCMY-2; 16 µg/mL with K. pneum blaKPC-2; 16 µg/mL with K. pneum KPC-Kpn; 4 µg/mL in the assay on blaADC-7; 4 µg/mL in the assay on blaCTXM-9. In the assay with blaPDC-3E221K, the “MIC values of antibiotics in combination” value amounted to 8 µg/mL.
For the molecule `CC(C)(O/N=C(\C(=O)N[C@@H](Cn1cc(C(=O)O)nn1)B(O)O)c1nsc(N)n1)C(=O)O` [PCF_014], the “MIC values of antibiotics in combination” value in the assay with 18SH was found to be 64 µg/mL; in the assay on blaCMY-2 it was 64 µg/mL; with K. pneum blaKPC-2 it was 32 µg/mL; with K. pneum KPC-Kpn, 32 µg/mL; in the assay on blaADC-7, 8 µg/mL; in the assay on blaCTXM-9, 2 µg/mL. For the same molecule, the “MIC values of antibiotics in combination” value in the assay with blaPDC-3E221K came out at 32 µg/mL.
On to `CC1(C)[C@H](C(=O)O)N2C(=O)C[C@H]2S1(=O)=O` [SULB, sulbactam], for which the MIC of antibiotic entry in the assay on HUMC1 Abspp is reported as “SULB 4 mg/mL”.

Values taken from patent publication US20250340577A1, “BETA-LACTOMASE INHIBITORS AND USES THEREOF” (Case Western Reserve University, priority 2021, published 2025).
